# In patent US10525139B2, “Folate-conjugated molecules for delivery of toxic small molecule inhibitors to cancer cells and methods of use” (priority 2014, dated 2020):
# Columns and labels:
# NOTCH1 target genes = experiment: NOTCH1 target gene expression by RT-PCR in T-ALL cell lines; type: cell-based, human; conditions: T-ALL cells (ALL/SIL, DND41), 24 hours
# Description: Errors bars denote mean±SD of 4 replicates. […] The blot was stained with an antibody against the C-terminus of NOTCH1 that recognizes both the furin-processed NOTCH1 transmembrane subunit (TM) and the unprocessed NOTCH1 precursor (FL). The immunoblot was also stained with anti-ICN1 antibody. GAPDH was used as a loading control. […] Error bars indicate the mean±SD of 4 replicates. Data were analyzed using the ΔΔCT method and plotted as a percentage relative to the control gene RPL13A. Statistical significance among groups for treated vs. vehicle (DMSO) samples (***P≤0.0001) was determined by one-way ANOVA with Bonferroni's correction for multiple comparison testing. […] The blot was stained with an antibody against the C-terminus of NOTCH1 (N1) that recognizes both the furin-processed NOTCH1 transmembrane subunit (TM). GAPDH was used as a loading control. […] Cells were probed with an anti-NOTCH1 antibody (green) and nuclei were counterstained with DAPI. […] Error bars indicate the mean±SD of 4 replicates. Data were analyzed using the ΔΔCT method and plotted as a percentage relative to the control gene RPL13A. Statistical significance (***P≤0.001. ****P≤0.0001) for treated vs. vehicle (DMSO) was determined by one-way ANOVA with Bonferroni's correction for multiple comparison testing. […]
# PDX T-ALL cells = experiment: JQ-FT treatment of patient-derived xenograft (PDX) T-ALL cells in vitro; type: cell-based, human
# Description: Errors bars denote mean±SD of 4 replicates. […] The blot was stained with an antibody against the C-terminus of NOTCH1 that recognizes both the furin-processed NOTCH1 transmembrane subunit (TM) and the unprocessed NOTCH1 precursor (FL). The immunoblot was also stained with anti-ICN1 antibody. GAPDH was used as a loading control. […] Error bars indicate the mean±SD of 4 replicates. Data were analyzed using the ΔΔCT method and plotted as a percentage relative to the control gene RPL13A. Statistical significance among groups for treated vs. vehicle (DMSO) samples (***P≤0.0001) was determined by one-way ANOVA with Bonferroni's correction for multiple comparison testing. […] The blot was stained with an antibody against the C-terminus of NOTCH1 (N1) that recognizes both the furin-processed NOTCH1 transmembrane subunit (TM). GAPDH was used as a loading control. […] Cells were probed with an anti-NOTCH1 antibody (green) and nuclei were counterstained with DAPI. […] Error bars indicate the mean±SD of 4 replicates. Data were analyzed using the ΔΔCT method and plotted as a percentage relative to the control gene RPL13A. Statistical significance (***P≤0.001. ****P≤0.0001) for treated vs. vehicle (DMSO) was determined by one-way ANOVA with Bonferroni's correction for multiple comparison testing.
# To assess the translational significance of these findings, we studied patient-derived xenografts (PDX) from T-ALL patients at the Dana-Farber Cancer Institute.
# [1] = NOTCH1-mutated PDX cells, 24 hours
compound,measurement,setting,value
C/C=C(/C)C(=O)O[C@H]1C(C)=C2C([C@@H]1OC(=O)CCCCCCC)[C@@](C)(OC(C)=O)C[C@H](OC(=O)CC[C@H](NC(=O)c1ccc(NCc3cnc4nc(N)[nH]c(=O)c4n3)cc1)C(=O)O)[C@@]1(O)[C@H]2OC(=O)[C@@]1(C)O (stereo partly drawn) [JQ-FT],NOTCH1 target gene expression,NOTCH1 target genes,suppression of NOTCH1 target genes
same,ICN1 in NOTCH1-mutated PDX cells,PDX T-ALL cells; [1],depletion of detectable ICN1
same,transmembrane NOTCH1 in NOTCH1-mutated PDX cells,PDX T-ALL cells; [1],loss of transmembrane NOTCH1
same,expression of NOTCH1 target genes DTX and MYC in NOTCH1 mutant PDX samples,"PDX T-ALL cells; NOTCH1 mutant samples, 24 hours",decreased
same,NOTCH1 processing in WT NOTCH1 PDX cells,PDX T-ALL cells; PDX T-ALL cells possessing WT NOTCH1,no effect was observed
same,NOTCH1 target gene transcription in WT PDX samples,"PDX T-ALL cells; WT PDX samples, 24 hours",no transcriptional changes were observed
